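All cell lines were grown in 96-well plates and treated with compound for 48 hours. GI50 = concentration required for 50% inhibition of growth.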 The source made the active and inactive calls. Rule as the data show it: active = GI50 up to about 1.1 µM and inactive = higher.
Legend:
Test in all cases: inhibition of tumour cell growth, NCI panel, 48 h
BT-549 = system: BT-549
MCF7 = system: MCF7
OVCAR-8 = system: OVCAR-8
SK-MEL-5 = system: SK-MEL-5
LOX IMVI = system: LOX IMVI
HOP-92 = system: HOP-92
NCI-H460 = system: NCI-H460
SK-MEL-2 = system: SK-MEL-2
HCT-116 = system: HCT-116
TK-10 = system: TK-10
A498 = system: A498
MDA-MB-435 = system: MDA-MB-435
OVCAR-5 = system: OVCAR-5
T47D = system: T47D
SK-OV-3 = system: SK-OV-3
MDA-N = system: MDA-N
ACHN = system: ACHN
SK-MEL-28 = system: SK-MEL-28
CCRF-CEM = system: CCRF-CEM
SR = system: SR

SMILES | GI50 (BT-549) | GI50 (MCF7) | GI50 (OVCAR-8) | GI50 (SK-MEL-5) | GI50 (LOX IMVI) | GI50 (HOP-92) | GI50 (NCI-H460) | GI50 (SK-MEL-2) | GI50 (HCT-116) | GI50 (TK-10) | GI50 (A498) | GI50 (MDA-MB-435) | GI50 (OVCAR-5) | GI50 (T47D) | GI50 (SK-OV-3) | GI50 (MDA-N) | GI50 (ACHN) | GI50 (SK-MEL-28) | GI50 (CCRF-CEM) | GI50 (SR)
CCN(CC)CCC(=O)O[C@H]1CC[C@H](CC(C)[C@H]2CC(=O)C(C)C=C(C)[C@H](OC(=O)CCN(CC)CC)C(OC)C(=O)[C@@H](C)CC(C)/C=C/C=C/C=C(C)C(OC)CC3CC[C@H](C)[C@](O)(O3)C(=O)C(=O)N3CCCCC3C(=O)O2)CC1OC (stereo not given in full) | < 0.01 µM (active) | < 0.026 µM (active) | 0.0362 µM (active) | 0.173 µM (active) | 0.0222 µM (active) | 0.0348 µM (active) | 0.157 µM (active) | 0.0214 µM (active) | 0.865 µM (active) | 0.627 µM (active) | 0.0161 µM (active) | 0.264 µM (active) | 1.31 µM (inactive) | 0.0144 µM (active) | 0.0314 µM (active) | 0.294 µM (active) | 0.348 µM (active) | 0.0284 µM (active) | < 0.0119 µM (active) | 
CN(Cc1cnc2nc(N)nc(N)c2n1)c1ccc(C(=O)NC(CCC(=O)NC(CC(P(=O)(O)O)P(=O)(O)O)C(=O)O)C(=O)O)cc1 (stereo not given) | > 100 µM (inactive) | > 100 µM (inactive) | > 100 µM (inactive) | > 100 µM (inactive) | > 100 µM (inactive) | > 100 µM (inactive) | > 100 µM (inactive) | > 100 µM (inactive) | > 100 µM (inactive) | > 100 µM (inactive) |  | > 100 µM (inactive) | > 100 µM (inactive) | > 100 µM (inactive) | > 100 µM (inactive) | > 100 µM (inactive) | > 100 µM (inactive) | > 100 µM (inactive) |  | > 100 µM (inactive)
CSc1nc(NC(C)C)c2c(n1)Sc1nc3ccccc3n1C2O (stereo not given) | 6.79 µM (inactive) | 0.0465 µM (active) | 4.9 µM (inactive) |  | 7 µM (inactive) | 89.5 µM (inactive) |  | 7.73 µM (inactive) | 4.13 µM (inactive) | 14.3 µM (inactive) |  | 1.74 µM (inactive) |  | 4.2 µM (inactive) | 5.28 µM (inactive) | 2.75 µM (inactive) | 7.93 µM (inactive) | 3.34 µM (inactive) | 1.75 µM (inactive) | 2.84 µM (inactive)
COc1ccc(NCC(=O)Nn2c(C)nc3ccc(S(=O)(=O)Nc4ccc(OC)cc4)cc3c2=O)cc1 | > 100 µM (inactive) | > 100 µM (inactive) | > 100 µM (inactive) |  | > 100 µM (inactive) | > 100 µM (inactive) | > 100 µM (inactive) | > 100 µM (inactive) | > 100 µM (inactive) | > 100 µM (inactive) |  | > 100 µM (inactive) | > 100 µM (inactive) |  | > 100 µM (inactive) | > 100 µM (inactive) | > 100 µM (inactive) | > 100 µM (inactive) | > 100 µM (inactive) | > 100 µM (inactive)
CC(N)(/C=C/c1ccccc1)C(=O)O (stereo not given) | > 100 µM (inactive) | > 100 µM (inactive) | > 100 µM (inactive) | > 100 µM (inactive) | > 100 µM (inactive) | > 100 µM (inactive) | > 100 µM (inactive) | > 100 µM (inactive) | > 100 µM (inactive) | > 100 µM (inactive) | > 100 µM (inactive) | > 100 µM (inactive) | > 100 µM (inactive) |  | > 100 µM (inactive) | > 100 µM (inactive) | > 100 µM (inactive) | > 100 µM (inactive) |  | > 100 µM (inactive)
O=C(CC(Cl)=C(Cl)Cl)c1ccccc1 | 66.1 µM (inactive) | > 100 µM (inactive) | > 100 µM (inactive) | > 100 µM (inactive) | 15 µM (inactive) | > 100 µM (inactive) | > 100 µM (inactive) | > 100 µM (inactive) | 21.3 µM (inactive) | > 100 µM (inactive) | > 100 µM (inactive) | 36.3 µM (inactive) | 46 µM (inactive) | 34.7 µM (inactive) | > 100 µM (inactive) |  | 43.5 µM (inactive) | 55.7 µM (inactive) | 13.7 µM (inactive) | 21.4 µM (inactive)
Nc1n[n+](CC(=O)c2ccccc2)c2sc(-c3ccccc3)nn12 | > 100 µM (inactive) | 51.4 µM (inactive) | 78.2 µM (inactive) | 48.6 µM (inactive) | 54 µM (inactive) |  | > 100 µM (inactive) | > 100 µM (inactive) | 44.2 µM (inactive) | > 100 µM (inactive) | > 100 µM (inactive) | 27.7 µM (inactive) | > 100 µM (inactive) | > 100 µM (inactive) | > 100 µM (inactive) | 84.7 µM (inactive) | > 100 µM (inactive) | > 100 µM (inactive) | 45.7 µM (inactive) | 

From ChEMBL document CHEMBL1201862, “PubChem BioAssay data set” (2004)
